The record followed here is article PMC12714728, “VHH antibody loop guides design of a synthetic macrocyclic peptide that potently blocks influenza virus membrane fusion” (npj Viruses, 2025).

SMILES strings stand for the structures. “And” between values parts separate entries of the source, which are not always exact repeats. Equal entries are not always repeated. Where two headings read alike, the source gives them in different places.

Data set [1] relates to H1/NCa HA (A/New Caledonia/20/1999 (H1N1)). It is filed as binding, influenza A virus.
Data set [2] concerns H5/Viet virus (A/Vietnam/1203/2004 (H5N1)).
Data set [3] concerns H1N1 A/Brisbane/59/2007 (H1/Bri) HA. The data set is classed as biochemical, influenza A virus. To be noted: pH 5.25.
Data set [4] relates to H5/Viet HA (A/Vietnam/1203/2004 (H5N1)). The data set is classed as binding, influenza A virus.
The subject of data set [5] is H1/Cal HA (A/California/07/2009 (H1N1)). It is filed as binding, influenza A virus.
Data set [6] deals with group 1 H1/Cal, H1/NCa, and H5/Viet HAs. It is filed as binding, influenza A virus.
The subject of data set [7] is HAs from group 2 and influenza B viruses. The data set is classed as binding, influenza A and B viruses.
Data set [8] relates to group 1 H1/Cal, H1/NCa, and H5/Viet HAs. It is filed as binding, influenza A virus. The following applies: for IC50: read-out: IC50 in AlphaLISA (range over HAs).
The target in data set [9] is H4N6 A/duck/Czechoslovakia/1956 HA (Influenza A virus, UniProt P19696). The data set is classed as binding.
Sequence of H4N6 A/duck/Czechoslovakia/1956 HA (P19696 17-527 limits assumed): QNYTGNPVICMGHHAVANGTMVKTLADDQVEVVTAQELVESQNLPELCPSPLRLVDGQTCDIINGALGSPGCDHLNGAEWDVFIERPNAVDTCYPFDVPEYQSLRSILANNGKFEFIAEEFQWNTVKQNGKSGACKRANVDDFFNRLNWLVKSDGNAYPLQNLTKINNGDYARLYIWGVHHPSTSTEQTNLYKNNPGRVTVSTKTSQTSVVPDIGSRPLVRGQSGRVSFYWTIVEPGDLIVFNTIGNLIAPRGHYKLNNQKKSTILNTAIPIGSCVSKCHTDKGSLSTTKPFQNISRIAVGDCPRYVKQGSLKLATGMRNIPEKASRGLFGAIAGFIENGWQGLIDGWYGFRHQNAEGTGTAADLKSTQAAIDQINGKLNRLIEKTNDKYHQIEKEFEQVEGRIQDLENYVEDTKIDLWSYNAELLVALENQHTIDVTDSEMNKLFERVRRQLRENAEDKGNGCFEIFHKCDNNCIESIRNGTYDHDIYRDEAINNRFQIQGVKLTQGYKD
The target of data set [10] is H1N1 A/duck/Alberta/345/1976 HA. The data set is classed as binding, influenza A virus.
Data set [11] addresses H15N9 A/shearwater/W. Australia/2576/79 HA. It is filed as binding, influenza A virus.
Data set [12] addresses H3N2 A/Hong Kong/1/1968 HA (Influenza A virus, UniProt Q91MA7). It is filed as binding.
The target in data set [13] is B/Brisbane/33/2008 HA (Victoria lineage). It is filed as binding, influenza B virus.
In data set [14] the test system is H1/Cal HA (H1N1 A/California/07/2009). It is filed as binding, influenza A virus.
The target of data set [15] is H14N5 A/mallard/Astrakhan/263/1982 HA (Influenza A virus, UniProt P26136). It is filed as binding.
Sequence of H14N5 A/mallard/Astrakhan/263/1982 HA (P26136 18-531 limits assumed): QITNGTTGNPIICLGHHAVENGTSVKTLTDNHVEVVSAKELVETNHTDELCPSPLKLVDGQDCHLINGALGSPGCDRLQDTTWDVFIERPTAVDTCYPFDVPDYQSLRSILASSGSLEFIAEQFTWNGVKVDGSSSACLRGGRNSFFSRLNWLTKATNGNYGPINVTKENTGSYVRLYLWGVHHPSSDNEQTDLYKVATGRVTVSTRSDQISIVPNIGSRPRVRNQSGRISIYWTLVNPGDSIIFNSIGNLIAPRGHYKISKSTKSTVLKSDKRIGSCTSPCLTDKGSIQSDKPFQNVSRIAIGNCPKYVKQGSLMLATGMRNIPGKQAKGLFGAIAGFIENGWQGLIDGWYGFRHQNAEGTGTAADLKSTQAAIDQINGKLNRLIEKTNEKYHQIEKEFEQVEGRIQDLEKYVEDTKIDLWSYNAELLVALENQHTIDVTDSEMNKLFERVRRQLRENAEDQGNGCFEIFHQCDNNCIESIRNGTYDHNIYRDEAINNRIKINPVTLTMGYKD
Data set [16] concerns the target H6N2 A/turkey/Massachusetts/3740/1965 HA. It is filed as binding, influenza A virus.
A further data set has as its target H2N2 A/Adachi/2/1957 HA. It is filed as binding, influenza A virus.
The test system of data set [17] is group 2 or influenza B HAs. The data set is classed as binding, influenza A and B viruses.
The nature of data set [18]: In vitro cell permeability assay. The following applies: for efflux ratio: LLC-PK1, Efflux ratio BA/AB; for efflux ratio / Papp B→A: LLC-Parent; for Papp B→A: LLC-PK1, Papp BA, basolateral to apical.
Data set [19] deals with H3N2 A/Victoria/361/2011 HA. The data set is classed as binding, influenza A virus.
For data set [20], the target named is H7N7 A/Netherlands/219/2003 HA. The data set is classed as binding, influenza A virus.
The target in data set [21] is B/Massachusetts/02/2012 HA (Yamagata lineage). The data set is classed as binding, influenza B virus.
Data set [22] addresses H12N5 A/duck/Alberta/60/1976 HA. The data set is classed as binding, influenza A virus.
Data set [23] deals with H1N1 A/Solomon Islands/3/2006 HA. It is filed as binding, influenza A virus.
Data set [24] deals with H9N2 A/turkey/Wisconsin/1/1966 HA. It is filed as binding, influenza A virus.
Data set [25] deals with H1/NCa HA (H1N1 A/New Caledonia/20/1999). It is filed as binding, influenza A virus.
Data set [26] can be described thus: In vitro cell permeability / P-gp substrate assay. The following applies: for Papp A→B: LLC-PK1, Papp AB, LLC-MDR1, apical to basolateral; for Papp B→A: LLC-PK1, Papp BA, LLC-MDR1, basolateral to apical.
The target of data set [27] is H16N3 A/black-headed gull/Sweden/4/1999 HA. It is filed as binding, influenza A virus.
Data set [28] deals with H11N6 A/duck/England/1/1956 HA. The data set is classed as binding, influenza A virus.
Data set [29] relates to H5/Viet HA (H5N1 A/Vietnam/1203/2004). It is filed as binding, influenza A virus.
Data set [30] has as its target T1, H1/PR8 HA (A/Puerto Rico/8/1934 (H1N1)) (Influenza A virus, UniProt P03452).
T1 construct: The HA ectodomain was expressed using a baculovirus expression system in Sf9 cells; gp67 signal peptide (N); thrombin site (C); BirA biotinylation site (C); trimerization domain (C); His-tag (C); made in house; host or cells: Sf9 cells (baculovirus)
The experiment in a line: Trypsin susceptibility (TS) assay. It is filed as biochemical. The following applies: pH 5.0; 50 μM CP1 or 10 μM CR9114 Fab, 5 μM HA.

Data set [31] concerns the target H10N7 A/chicken/Germany/N/1949 HA (Influenza A virus, UniProt P12581). It is filed as binding.

Sequence of H3N2 A/Hong Kong/1/1968 HA (Q91MA7 17-530 limits assumed): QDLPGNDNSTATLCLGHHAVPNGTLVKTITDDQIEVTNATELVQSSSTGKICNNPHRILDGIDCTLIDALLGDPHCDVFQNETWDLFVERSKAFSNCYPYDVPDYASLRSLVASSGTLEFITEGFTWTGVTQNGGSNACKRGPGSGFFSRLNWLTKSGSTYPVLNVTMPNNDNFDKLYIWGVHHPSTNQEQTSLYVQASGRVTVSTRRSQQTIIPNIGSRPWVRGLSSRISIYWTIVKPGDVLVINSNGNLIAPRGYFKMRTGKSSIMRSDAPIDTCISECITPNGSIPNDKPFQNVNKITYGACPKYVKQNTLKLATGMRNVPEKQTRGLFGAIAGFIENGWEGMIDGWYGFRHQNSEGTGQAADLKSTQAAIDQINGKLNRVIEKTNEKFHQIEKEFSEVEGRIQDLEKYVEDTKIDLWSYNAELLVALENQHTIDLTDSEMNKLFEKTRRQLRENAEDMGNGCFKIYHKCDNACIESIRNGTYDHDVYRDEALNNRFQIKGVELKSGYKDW
T1 sequence (P03452 18-528 limits assumed): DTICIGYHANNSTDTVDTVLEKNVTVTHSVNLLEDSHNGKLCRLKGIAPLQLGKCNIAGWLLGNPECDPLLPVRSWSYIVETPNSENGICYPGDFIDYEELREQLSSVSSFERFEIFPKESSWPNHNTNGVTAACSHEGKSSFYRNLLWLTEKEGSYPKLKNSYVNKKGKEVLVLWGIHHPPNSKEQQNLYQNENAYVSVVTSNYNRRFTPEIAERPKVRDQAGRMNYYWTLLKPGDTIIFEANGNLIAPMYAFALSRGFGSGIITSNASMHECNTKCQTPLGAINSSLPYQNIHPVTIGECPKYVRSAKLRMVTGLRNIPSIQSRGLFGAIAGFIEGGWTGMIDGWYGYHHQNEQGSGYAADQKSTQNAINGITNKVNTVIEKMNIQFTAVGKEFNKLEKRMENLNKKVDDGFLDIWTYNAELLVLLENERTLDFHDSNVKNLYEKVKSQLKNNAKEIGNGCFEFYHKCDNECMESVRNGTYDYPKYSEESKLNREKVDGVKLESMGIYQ
Sequence of H10N7 A/chicken/Germany/N/1949 HA (P12581 17-524 limits assumed): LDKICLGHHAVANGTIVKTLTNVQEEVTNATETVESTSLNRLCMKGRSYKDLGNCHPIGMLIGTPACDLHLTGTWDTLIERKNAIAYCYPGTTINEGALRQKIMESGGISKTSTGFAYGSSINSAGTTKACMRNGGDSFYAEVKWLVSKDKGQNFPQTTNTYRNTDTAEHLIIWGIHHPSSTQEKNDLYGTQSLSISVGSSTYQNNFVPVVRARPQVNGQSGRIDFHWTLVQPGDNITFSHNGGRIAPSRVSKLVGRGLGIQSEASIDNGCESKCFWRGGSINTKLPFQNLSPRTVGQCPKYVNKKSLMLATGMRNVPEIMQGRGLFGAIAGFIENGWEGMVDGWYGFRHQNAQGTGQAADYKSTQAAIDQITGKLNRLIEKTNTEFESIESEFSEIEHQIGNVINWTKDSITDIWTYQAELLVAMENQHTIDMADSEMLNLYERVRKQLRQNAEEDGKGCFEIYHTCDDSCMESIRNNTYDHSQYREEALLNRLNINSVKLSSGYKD

For `CSCC[C@@H]1NC(=O)CNC(=O)CNC(=O)[C@H](C)NC(=O)[C@H](C(C)C)NC(=O)CNC(=O)[C@H](CC(C)C)NC(=O)[C@@H]2CCCN2C(=O)[C@H](CC(=O)O)NC(=O)[C@H](CCC(=O)O)NC(=O)[C@H](Cc2ccc(O)cc2)NC(=O)[C@H](CC(C)C)NC(=O)[C@H](CO)NC(=O)[C@H](C(C)C)NC(=O)[C@H]2CCCN2C(=O)CNC(=O)[C@H](Cc2ccc(O)cc2)NC(=O)[C@H](C(C)C)NC(=O)CNC1=O` [CP4], the half-inhibitory concentration (IC50) (commonly the concentration that inhibits the measured activity by half) turned out to be 0.075 ± 0.01 µM in data set [1], 0.39 ± 0.04 µM in data set [3], 0.76 ± 0.086 µM in [4] and 0.1 µM in data set [5]. Further, the “Neutralization activity against H5N1 virus (in words)” value in data set [2] is on record as “complete abolishment of neutralization activity”. Moreover, in [6], the “half-life / residence time t1/2 (range over HAs)” value lay within 2 to 16 s. The “koff (range over HAs)” value in data set [6] is reported as 0.04–0.32.
Regarding `CSCC[C@H](NC(=O)CNC(=O)CNC(=O)[C@H](C)NC(=O)[C@@H](NC(=O)CNC(=O)[C@H](CC(C)C)NC(=O)[C@@H]1CCCN1C(=O)[C@H](CC(=O)O)NC(=O)[C@H](CCCNC(=N)N)NC(=O)[C@H](Cc1ccc(O)cc1)NC(=O)[C@H](CC(C)C)NC(=O)[C@H](CO)NC(=O)[C@@H](NC(=O)CCC(=O)O)C(C)C)C(C)C)C(=O)NCC(=O)N[C@H](C(=O)N[C@@H](Cc1ccc(O)cc1)C(N)=O)C(C)C` [LP1], the concentration for half-maximal inhibition (IC50) in [1] was 22.9 ± 4.14 µM; in data set [4] it was 47.9 ± 3.77 µM; in data set [5], 11.5 ± 2.5 µM; in data set [8] it was 11 to 47 µM. In addition, the “Binding to HAs of group 2 and influenza B viruses” value in [7] is recorded as “no binding was observed”. Besides, the dissociation constant Kd (commonly a measure of binding affinity in units of concentration) in [6] (read-out: KD by SPR (range over HAs)) is 3 to 7 µM.
Consider `CSCC[C@@H]1NC(=O)CNC(=O)CNC(=O)[C@H](C)NC(=O)[C@H](C(C)C)NC(=O)CNC(=O)[C@H](CC(C)C)NC(=O)[C@@H]2CCCN2C(=O)[C@H](CC(=O)O)NC(=O)[C@H](CCC(=O)O)NC(=O)[C@H](Cc2ccc(O)cc2)NC(=O)[C@H](CC(C)C)NC(=O)[C@H](CO)NC(=O)[C@H](C(C)C)NC(=O)[C@H]2CCCN2C(=O)[C@@H]2CCCN2C(=O)[C@H](Cc2ccc(O)cc2)NC(=O)[C@H](C(C)C)NC(=O)CNC1=O` [CP1], for which the KD result in data set [9], in data set [11], in [12], in data set [13], in [15] and in data set [19] was “N.B” each time. Also, the KD result in [20], in data set [21], in data set [22] and in [31] was “N.B” throughout. Moreover, the Kd in [10] was 0.101 µM; in data set [14] (read-out: KD) it was 0.054 µM; in data set [14] (read-out: KD by SPR), 0.05 µM; in data set [16], 0.091 µM; at H2N2 A/Adachi/2/1957 HA it was > 1 µM; in data set [23], 0.128 µM. In addition, the Kd is > 1 µM in [24], 0.023 µM in data set [25], 1.1 µM in [27] and 2.3 µM in data set [28]. Moreover, the “improvement in binding affinity versus linear peptide LP1” value in data set [14] is on record as 60 fold. Also, the concentration for half-maximal inhibition (IC50) was 0.052 ± 0.02 µM in data set [1]; 0.049 µM and 0.05 µM in data set [3]; 0.84 ± 0.13 µM in data set [4]; 0.055 µM in data set [5]; 0.052 to 0.84 µM in [8]. The “Neutralization activity against H5N1 virus (in words)” value in data set [2] is on record as “modest activity”. In addition, the “Binding against group 2 or influenza B HAs in SPR” value in data set [17] is reported as “no binding”. This compound also gave a recovery in data set [18] (LLC-PK1) of 92.9%. The efflux ratio (usually the permeability from basolateral to apical divided by that in the opposite direction, in the common usage) in [18] (+ 5 µM GF120918) is 2.97; in data set [18] (no inhibitor), 2.55; in data set [26] (LLC-PK1, Efflux ratio BA/AB, LLC-MDR1, + 5 µM GF120918) it was 1.36; in data set [26] (LLC-PK1, Efflux ratio BA/AB, LLC-MDR1, no inhibitor), 1.57; in data set [26] (LLC-PK1, Efflux ratio, text: LLC-parent and LLC-MDR1, in the presence and absence of elacridar (GF120918)), < 2. Moreover, the apparent permeability from basolateral to apical (Papp B→A) (as a rule, the apparent permeability from the basolateral to the apical side of a cell layer) in [18] (+ 5 µM GF120918) was found to be 0.22 ± 0.12 ×10⁻⁶ cm/s; in [18] (no inhibitor) it was 0.19 ± 0.09 ×10⁻⁶ cm/s; in data set [26] (+ 5 µM GF120918), 0.32 ± 0.02 ×10⁻⁶ cm/s; in data set [26] (no inhibitor), 0.33 ± 0.08 ×10⁻⁶ cm/s. Besides, the Papp A→B – broadly, the apparent permeability from the apical to the basolateral side of a cell layer – in [18] (LLC-PK1, pH 7.4) came to 0.07 ± 0.01 ×10⁻⁶ cm/s; in data set [26] (+ 5 µM GF120918), 0.23 ± 0.04 ×10⁻⁶ cm/s; in data set [26] (no inhibitor) it was 0.21 ± 0.03 ×10⁻⁶ cm/s. Further, in data set [8], the “improvement in binding in AlphaLISA versus LP1” value is given as 60- to 440 fold. Further, the “half-life / residence time t1/2 (range over HAs)” value in [6] fell in the range of 5 to 46 s. Besides, the “slower dissociation (koff) compared to LP1” value in [6] was 9- to 180 fold. Besides, in [29], the “faster koff rate against H5 versus H1 HA” value amounted to 14 fold. For the same compound, in [30], the “Protection of HA from low pH-induced conversion to trypsin-susceptible conformation” value is given as “inhibits the conversion of H1/PR8 HA to the post-fusion conformation”.
